Results from ChEMBL document CHEMBL1201862, “PubChem BioAssay data set” (2004).
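Where inhibition never reached the appropriate level, the endpoint shown equals the highest concentration tested. Otherwise, values were interpolated linearly from a five-concentration, 48-hour dose response in 96-well plates. GI50 is the concentration that inhibits growth by half.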 The source made the active and inactive calls. Cut-off read from the data, not from the text of the source: active = GI50 up to about 1.1 µM and inactive = higher.

Assays:
Experiment in all cases: NCI anticancer screen, dose series, 48 h
MDA-MB-231 = tested on: MDA-MB-231
HOP-62 = tested on: HOP-62
TK-10 = tested on: TK-10
SK-MEL-5 = tested on: SK-MEL-5
RXF 393 = tested on: RXF 393
HCC 2998 = tested on: HCC 2998
SF-295 = tested on: SF-295
ACHN = tested on: ACHN
SK-MEL-2 = tested on: SK-MEL-2
BT-549 = tested on: BT-549
NCI-H23 = tested on: NCI-H23
SF-268 = tested on: SF-268
NCI-H226 = tested on: NCI-H226
HT-29 = tested on: HT-29
LOX IMVI = tested on: LOX IMVI
MDA-MB-435 = tested on: MDA-MB-435
MOLT-4 = tested on: MOLT-4
U-251 = tested on: U-251
MCF7 = tested on: MCF7
OVCAR-5 = tested on: OVCAR-5

SMILES | GI50 (MDA-MB-231) | GI50 (HOP-62) | GI50 (TK-10) | GI50 (SK-MEL-5) | GI50 (RXF 393) | GI50 (HCC 2998) | GI50 (SF-295) | GI50 (ACHN) | GI50 (SK-MEL-2) | GI50 (BT-549) | GI50 (NCI-H23) | GI50 (SF-268) | GI50 (NCI-H226) | GI50 (HT-29) | GI50 (LOX IMVI) | GI50 (MDA-MB-435) | GI50 (MOLT-4) | GI50 (U-251) | GI50 (MCF7) | GI50 (OVCAR-5)
NC(=O)SCCC(N)C(=O)O (stereo not given) | > 100 µM (inactive) | > 100 µM (inactive) | > 100 µM (inactive) | > 100 µM (inactive) | > 100 µM (inactive) | > 100 µM (inactive) | > 100 µM (inactive) | > 100 µM (inactive) | > 100 µM (inactive) | > 100 µM (inactive) | > 100 µM (inactive) | > 100 µM (inactive) | > 100 µM (inactive) | > 100 µM (inactive) | > 100 µM (inactive) | > 100 µM (inactive) | > 100 µM (inactive) | > 100 µM (inactive) | > 100 µM (inactive) | > 100 µM (inactive)
CN(/N=C/c1ccccn1)C1=NCCCCN1 | > 100 µM (inactive) | > 100 µM (inactive) | > 100 µM (inactive) | > 100 µM (inactive) | > 100 µM (inactive) | > 100 µM (inactive) | > 100 µM (inactive) | > 100 µM (inactive) | > 100 µM (inactive) | > 100 µM (inactive) | > 100 µM (inactive) | > 100 µM (inactive) | > 100 µM (inactive) | > 100 µM (inactive) | > 100 µM (inactive) | > 100 µM (inactive) | > 100 µM (inactive) | > 100 µM (inactive) | > 100 µM (inactive) | > 100 µM (inactive)
COc1cccc2c1C(=O)c1c(O)c3c(c(O)c1C2=O)CC(O)(C(=O)CO)CC3OC1CC(N2CCOCC2C#N)C(O)C(C)O1 (stereo not given) | < 0.0001 µM (active) | < 0.0001 µM (active) | < 0.0001 µM (active) | < 0.0001 µM (active) | > 0.01 µM (active) | < 0.0001 µM (active) | < 0.0001 µM (active) | < 0.0001 µM (active) | < 0.0001 µM (active) | < 0.0001 µM (active) | < 0.0001 µM (active) | > 0.01 µM (active) | < 0.0001 µM (active) | < 0.0001 µM (active) | < 0.0001 µM (active) | < 0.0001 µM (active) | < 0.0001 µM (active) | < 0.0001 µM (active) | < 0.0001 µM (active) | < 0.0001 µM (active)
CC1=CCC([C@@](C)(O)CCCC(C)(C)N=C=S)CC1 (stereo not given in full) | 19.1 µM (inactive) | 22.6 µM (inactive) | 22 µM (inactive) | 15.4 µM (inactive) | 13.7 µM (inactive) | 18.2 µM (inactive) | 19.4 µM (inactive) | 16.8 µM (inactive) | 17.7 µM (inactive) | 17.8 µM (inactive) | 20.9 µM (inactive) | 16.8 µM (inactive) | 17.2 µM (inactive) | 17.7 µM (inactive) | 16 µM (inactive) | 17.1 µM (inactive) | 21.5 µM (inactive) | 18.8 µM (inactive) | 18.7 µM (inactive) | 19.4 µM (inactive)
NC(=O)C(=CNC(=S)c1ccncc1)C(N)=O | > 100 µM (inactive) | > 100 µM (inactive) | > 100 µM (inactive) | > 100 µM (inactive) | > 100 µM (inactive) | > 100 µM (inactive) | > 100 µM (inactive) | > 100 µM (inactive) | > 100 µM (inactive) | > 100 µM (inactive) | > 100 µM (inactive) | > 100 µM (inactive) | > 100 µM (inactive) | > 100 µM (inactive) | > 100 µM (inactive) | > 100 µM (inactive) | > 100 µM (inactive) | > 100 µM (inactive) | > 100 µM (inactive) | > 100 µM (inactive)
CCOC(=O)CCC(NC(=O)c1ccc(Nc2cnc3ccc(C(F)(F)F)cc3n2)cc1)C(=O)OCC (stereo not given) | 4.59 µM (inactive) | 14.1 µM (inactive) | 4.97 µM (inactive) | > 64.7 µM (inactive) | 15 µM (inactive) | 81.1 µM (inactive) | 31.1 µM (inactive) | 24.9 µM (inactive) | > 96.4 µM (inactive) | 20.9 µM (inactive) | 35 µM (inactive) | 15 µM (inactive) | 28.1 µM (inactive) | > 80.5 µM (inactive) | 36.7 µM (inactive) | > 80.9 µM (inactive) | 2.2 µM (inactive) | 11.6 µM (inactive) | 27.9 µM (inactive) | > 100 µM (inactive)
N#CC(=S)Nc1cccc(Cl)c1 | 38.4 µM (inactive) | 43.8 µM (inactive) | 35.4 µM (inactive) | 4.11 µM (inactive) | 26 µM (inactive) | 28.8 µM (inactive) | 23.8 µM (inactive) | 26.2 µM (inactive) | 26.5 µM (inactive) | 35.5 µM (inactive) | 31.4 µM (inactive) | 40.5 µM (inactive) | 23.9 µM (inactive) | 19.5 µM (inactive) | 39.3 µM (inactive) | 33.1 µM (inactive) | 34 µM (inactive) | 34.8 µM (inactive) | 46.8 µM (inactive) | 28.5 µM (inactive)
